Test results taken from article PMC4549624 (Scientific Reports, 2015).
Like-named read-outs stand apart in the source and are kept apart here.

Assays:
[1] = system: KCNQ1; details: cited from earlier work
[2] = molecular target: KCNE1 (human) (UniProt P15382)
[3] = molecular target: KCNE1-R32D (human) (UniProt P15382)

Molecule: CCS(=O)(=O)N(C)[C@H]1c2cc(C#N)ccc2OC(C)(C)[C@@H]1O (racemic) [chromanol 293B]
- effect on KCNQ1 [1]: inhibit the channel

Molecule: COc1ccc(-c2csc(NC(=O)[C@H]3CCCCN3S(=O)(=O)c3ccc(C)cc3)n2)cc1 [ML277]
- effect on KCNQ1 ([1]; binds to side pocket in KCNQ1, especially KCNE1-free side pocket, in words): enhance the amplitude of the KCNQ1 current

Molecule: O=C(Nc1cc(C(F)(F)F)ccc1O)Nc1cc(C(F)(F)F)ccc1O [NS1643]
- effect on KCNQ1 ([1]; binds to KCNQ1, in words): enhance the channel conductance

Molecule: SSD609 (peptide)
- current of wild-type KCNQ1/KCNE1 left under SSD609 in transfected CHO cells, whole-cell patch clamp (reference of the R32D mutant) [2]: 30%
- current of KCNQ1/KCNE1-R32D left under SSD609 in transfected CHO cells, whole-cell patch clamp [3]: < 10%
